Laboratory results reported in patent US20120128607A1, “EXTRACT OF WHOLE SEEDS OF MORNINGA SP, AND USE THEREOF IN COSMETIC AND/OR DERMATOLOGICAL COMPOSITIONS” (PIERRE FABRE DERMO-COSMETIQUE, priority 2009, published 2012).
One block for each molecule: values may come before it.

Legend:
ABC G1 = assay: Model of differentiation of normal human keratinocytes: gene expression (mRNA) of ABC G1; assay type: cell-based; conditions: NHK, with respect to non-treated cells
Description: (§1) First, the effects of extracts according to the invention have first been studied from a model of differentiated normal human keratinocytes (NHK).
(§2) The effect of the extracts of Moringa sp. on the gene expression of different proteins involved in the synthesis or the transport of the epidermal lipids, ABC G1 and hDES2, has been analyzed.
(§3) The results are expressed in percentage of stimulation of the gene expression (mRNA) of different markers of the epidermal differentiation expressed by the NHKs (with respect to the non-treated cells). A significant positive effect is considered from 100% of stimulation.

hDES2 = assay: Model of differentiation of normal human keratinocytes: gene expression (mRNA) of hDES2; assay type: cell-based; conditions: NHK, with respect to non-treated cells
Description: as §1, §2, §3

[1] = DPPH test (antioxidant activity); conditions: methanolic solution of DPPH at 0.06 mM, absorption at 517 nm
Description: The antioxidant activity of the seed extract of Moringa oleifera according to the present invention has been evaluated with the DPPH test. This test is based on the measure of the capacity for trapping antioxidants of the stable radical 2.2-diphenyl-1-picrylhydrazyl (DPPH). This stable radical, having absorption at 517 nm, is reduced to the corresponding hydrazine when it reacts with a hydrogen donor.
The results obtained are expressed in IC50, corresponding to the concentration giving 50% reduction in absorbance of a methanolic solution of DPPH at 0.06 mM.

Molecule: CN(CCOc1ccc(CC2SC(=O)NC2=O)cc1)c1ccccn1 (centres unmarked) [Roziglitazone, roziglitazone]
- percentage of stimulation of the gene expression (mRNA) of ABC G1 (ABC G1; 10 μM): 330%
- percentage of stimulation of the gene expression (mRNA) of hDES2 (hDES2; 10 μM): 190%

- IC50 (concentration giving 50% reduction in absorbance of DPPH solution) [1]: 6 to 10 mg/L
Molecule: Vitamin E

Molecule: C=C1CC[C@H](O)C/C1=C/C=C1\CCC[C@]2(C)[C@@H]([C@H](C)CCCC(C)C)CC[C@@H]12 [Vit D3, vitamin D3]
- percentage of stimulation of the gene expression (mRNA) of ABC G1 (ABC G1; 5 μM): 170%
- percentage of stimulation of the gene expression (mRNA) of hDES2 (hDES2; 5 μM): 780%
